# Test results from ChEMBL document CHEMBL3507680, “University of Dundee, Gates Library screen for HepG2 cell viability”.
# Assay: Human HepG2 cell viability assay in 384 well format
# Format: toxicity, cell-based
# Parameters: dose 125 nL, time 70.5 hour; cytotoxicity at 70.5 h: concentration not given beside the values
# Conditions: HepG2 cells, read-out: Inhibition
structure (smiles),measurement,value
CNc1ccnc(NCCC(=O)Nc2ccccc2OC)n1,cytotoxicity at 70.5 h,-3.36%
O=C(Cc1nc(-c2ccncc2)n[nH]1)N1CCOCC1,cytotoxicity at 70.5 h,-14.8%
NC(=O)NC(=O)CCSc1ccccc1Cl,cytotoxicity at 70.5 h,-17.5%
O=C(COc1ccc(-n2cccn2)nn1)N1CCCC1,cytotoxicity at 70.5 h,-2.51%
Cc1ccc(CN2CC[C@H]3O[C@@H](C(=O)N4CCCO4)CC[C@H]32)s1,cytotoxicity at 70.5 h,-4%
O=C(Cc1c[nH]c2ccccc12)N1CCN(C(=O)c2ccoc2)CC1,cytotoxicity at 70.5 h,1.6%
CC(C(=O)N1CCN(CCOc2ccccc2)CC1)n1cc(Cl)cn1 (configuration not stated),cytotoxicity at 70.5 h,-9.22%
O=C(CSc1nc2c(cnn2CCO)c(=O)[nH]1)NC1CCCCC1,cytotoxicity at 70.5 h,14.1%
CCc1nnc(CN(C)c2nc(C(C)C)nc3c2cnn3C)o1,cytotoxicity at 70.5 h,-5.57%
COc1cc(C2Nc3cc(Cl)ccc3C3=NCCN32)cc(OC)c1OC (configuration not stated),cytotoxicity at 70.5 h,13.6%
O=C1N(c2cncnc2)CCC12CCCN(Cc1ccccn1)C2 (configuration not stated),cytotoxicity at 70.5 h,-9.94%
CN(C)C(=O)c1ccc2c(c1)nc(N1CC[C@H](O)C1)n2C,cytotoxicity at 70.5 h,19.5%
Cc1cc(C)c2c(c1)C(NCc1nnc3n1CCC3)CCCO2 (configuration not stated),cytotoxicity at 70.5 h,-5.63%
c1ccc(C2CCCN2C2CCSCC2)nc1 (configuration not stated),cytotoxicity at 70.5 h,0.0849%
COCCCN1C(=O)CC[C@H]2CN(Cc3cc4ccccc4o3)CC[C@H]21,cytotoxicity at 70.5 h,-1.98%
Cn1cc(-c2ccnc(NCC3CC3)n2)cn1,cytotoxicity at 70.5 h,-10.3%
CCc1cc(O)nc(C2CCCN2C(=O)c2cc(C)no2)n1 (configuration not stated),cytotoxicity at 70.5 h,8.47%
Cc1nc(CN(C)Cc2cn[nH]c2-c2ccc(F)cc2)c[nH]1,cytotoxicity at 70.5 h,5.97%
CSc1nsc(NC(=O)N2CCc3ccccc3C2)n1,cytotoxicity at 70.5 h,-4.59%
CN(C)C(=O)CN1C(=O)[C@H]2CC[C@@H]1CN(Cc1ccccc1C#N)C2,cytotoxicity at 70.5 h,-4.2%
CNc1ccc(C)cc1C(=O)N[C@H]1C[C@H]2CN(C)CCN2C1,cytotoxicity at 70.5 h,-13.3%
CN(C)Cc1cc(=O)n2c(n1)CN(C(=O)c1ccc[nH]1)CCC2,cytotoxicity at 70.5 h,-2.94%
Cn1cc(C(=O)N2CCN(c3ccc(F)cc3)CC2)ccc1=O,cytotoxicity at 70.5 h,2.77%
O=C(COc1cccc(F)c1)N1C[C@H](CO)C[C@H](CN2CCCC2)C1,cytotoxicity at 70.5 h,6.4%
COc1cccc(-n2nnc(C(=O)N3CCNC(=O)C3)c2C)c1,cytotoxicity at 70.5 h,28%
CC(C)NS(=O)(=O)c1cc(C(=O)O)cc(-c2ccccc2CN(C)C)c1,cytotoxicity at 70.5 h,-1.54%
O=C(CCNS(=O)(=O)c1ccccc1F)NCc1ccoc1,cytotoxicity at 70.5 h,4.05%
COc1ccc(CNc2cccnc2-n2cccn2)c(OC)c1OC,cytotoxicity at 70.5 h,-11.5%
COC(=O)c1ccc(OCC(=O)N(C)Cc2ccsc2)c(OC)c1,cytotoxicity at 70.5 h,-5.54%
CC(C(=O)NC1CCN(C)CC1)n1nc(C(F)(F)F)c(Cl)c1C1CC1 (configuration not stated),cytotoxicity at 70.5 h,11.6%
Cc1nn(CC(C)C)c(N(C)C)c1CNCc1ccnn1C,cytotoxicity at 70.5 h,28.6%
CC(=O)c1ccc(N2CCN(C(=O)NCc3cc[nH]n3)CC2)cc1,cytotoxicity at 70.5 h,-2.83%
CS(=O)(=O)CCCNc1cccc(COC2CCCCC2)c1,cytotoxicity at 70.5 h,-12.7%
COCC1COCCC12CCN(C(=O)CC1Cc3ccccc3C1)CC2 (configuration not stated),cytotoxicity at 70.5 h,0.913%
O=C(C1CCCc2[nH]ncc21)N1CCCC2(C1)OCCO2 (configuration not stated),cytotoxicity at 70.5 h,-9.5%
CNC(=O)C1(c2cnccn2)CCCN1C(=O)c1c(F)cccc1F (configuration not stated),cytotoxicity at 70.5 h,18.1%
Cc1cnn(CC2CN(CC(=O)NCc3ccco3)CCO2)c1 (configuration not stated),cytotoxicity at 70.5 h,-15.3%
O=C(Cc1cccc(F)c1)N1CCc2ncnc(NC3CC3)c2CC1,cytotoxicity at 70.5 h,1.87%
CCc1nccn1C1CCCN(C(=O)c2cncn2-c2ccccc2)C1 (configuration not stated),cytotoxicity at 70.5 h,-6.28%
Cc1ccc(-c2nnc(C3CCCN3S(=O)(=O)c3cnn(C)c3C)o2)s1 (configuration not stated),cytotoxicity at 70.5 h,2.03%
CC(C)COCCC(=O)NCc1cn2cc(Br)ccc2n1,cytotoxicity at 70.5 h,18.2%
Cc1cc(-c2ccnn2C)nc(C2CCN(S(C)(=O)=O)CC2)n1,cytotoxicity at 70.5 h,-4.75%
CN(CC1CCCCO1)S(=O)(=O)c1cccc(C(=O)N2CCOCC2)c1 (configuration not stated),cytotoxicity at 70.5 h,-10.5%
O=C(CCCOc1ccccc1)N1CCCC1Cn1cccn1 (configuration not stated),cytotoxicity at 70.5 h,-3.8%
COC(=O)c1ccc(N2CCN(C(=O)C3CC3)C(C)C2)cc1 (configuration not stated),cytotoxicity at 70.5 h,-5.06%
Cc1cc(C2CCCN2C(=O)Cn2c(C)cc(=O)c3ccccc32)on1 (configuration not stated),cytotoxicity at 70.5 h,-6.42%
Cc1nc2cc(F)ccc2cc1C(=O)N1CCN(CC(C)O)CC1 (configuration not stated),cytotoxicity at 70.5 h,-9.69%
CC(C)Oc1cccc(F)c1C(C(=O)O)N1CCCC1 (configuration not stated),cytotoxicity at 70.5 h,-11.9%
O=C(NCCc1cc2nc(-c3ccncc3)ccn2n1)C1CC1,cytotoxicity at 70.5 h,-6.41%
COCC(=O)N1CC(c2ccnc(Nc3ccc(C)cn3)n2)C1,cytotoxicity at 70.5 h,-10.9%
CCc1c(C)nc(N)nc1NCCSCc1[nH]cnc1C,cytotoxicity at 70.5 h,-2.58%
CN(C)c1ncc(CNS(=O)(=O)c2cc(F)ccc2Cl)n1C,cytotoxicity at 70.5 h,-9.08%
CSCCC(NC(=O)c1nc(SC)ncc1Cl)C(=O)O (configuration not stated),cytotoxicity at 70.5 h,-0.19%
Cc1ncnc2c1CCN(C(=O)CN(C)C)CC2,cytotoxicity at 70.5 h,19.6%
O=C(c1ccc(-n2ccnc2)cc1)N1CCCC(n2ccnc2)C1 (configuration not stated),cytotoxicity at 70.5 h,-6.23%
Cc1cccc(Nc2cc(C)nc(C3CCCCN3CC(N)=O)n2)n1 (configuration not stated),cytotoxicity at 70.5 h,-4.2%
CC(C)N1CCC(Cc2cc(-c3cccc(C(=O)O)c3)ncn2)CC1,cytotoxicity at 70.5 h,-4.63%
CCC(C)N1Cc2c(C(=O)N3CCCC3)nn(C)c2C1 (configuration not stated),cytotoxicity at 70.5 h,-2.34%
Cn1ccnc1CNC(=O)N1CCCC(Cc2nccn2C)C1 (configuration not stated),cytotoxicity at 70.5 h,2.69%
Nc1no[n+]([O-])c1C(=O)NCc1ccccn1,cytotoxicity at 70.5 h,-13.7%
O=C(O)CCc1ccc(S(=O)(=O)Nc2cnn(CC(F)(F)F)c2)cc1,cytotoxicity at 70.5 h,-5.48%
CS(=O)(=O)NC[C@@H]1OC[C@H]2CN(C(=O)c3ccccc3)CC[C@H]21,cytotoxicity at 70.5 h,15.9%
CC(C)C(=O)N1CCC([C@@H]2C[C@H](C(F)F)n3ncnc3N2)CC1,cytotoxicity at 70.5 h,9.09%
CC(=O)N1CCC(c2cc(C(F)(F)F)n3ccnc3n2)CC1,cytotoxicity at 70.5 h,5.43%
CC(Oc1ccccc1C(F)(F)F)C(=O)NCC(=O)N1CCCC1 (configuration not stated),cytotoxicity at 70.5 h,-6.07%
CC(OCC1CC1)C(=O)N1CCCN(c2ncccc2C#N)CC1 (configuration not stated),cytotoxicity at 70.5 h,15.5%
CC1CS(=O)(=O)CCN1CCCc1ccc(Cl)cc1 (configuration not stated),cytotoxicity at 70.5 h,-6.15%
c1ccc(COC[C@]23COC[C@H]2CN(c2ncccn2)C3)nc1,cytotoxicity at 70.5 h,-11.9%
COc1ccc(OC)c(C2CCN(C(=O)[C@H]3CC[C@@H](O)CC3)C2)c1 (some centres not stated),cytotoxicity at 70.5 h,-9.68%
O=C(c1ccc[nH]1)N1CCCC1c1nc(-c2ccccc2)n[nH]1 (configuration not stated),cytotoxicity at 70.5 h,-1.48%
Cc1cccc(S(=O)(=O)N2C[C@H]3C[C@H](C(=O)NCC4CC4)[C@@H](C2)O3)c1,cytotoxicity at 70.5 h,-0.444%
COc1ccc2nc(C3CC3)cc(C(=O)NCc3ncnn3C)c2c1,cytotoxicity at 70.5 h,0.319%
CCCNC(=O)N1CCCC2(CCC(=O)N(CCc3c[nH]cn3)C2)C1 (configuration not stated),cytotoxicity at 70.5 h,-1.2%
COC(=O)c1cc(C(=O)N2CCc3ccc(F)cc3C2C)ccn1 (configuration not stated),cytotoxicity at 70.5 h,-0.61%
CC(C)C(NC(=O)Cn1nc2c(cc1=O)CCCC2)C(=O)O (configuration not stated),cytotoxicity at 70.5 h,-13.5%
O=C1OCCN1CCNc1ncc2c(n1)CCN2c1ccccc1,cytotoxicity at 70.5 h,-6.11%
CC1CCN(CC2CCCN(C(=O)Nc3ccccn3)C2)CC1 (configuration not stated),cytotoxicity at 70.5 h,-7.54%
Cc1ncsc1-c1nc(-c2cccc(CN3CCOCC3)c2)no1,cytotoxicity at 70.5 h,-6.25%
Cc1ccc(F)c(S(=O)(=O)NCc2cccc(CS(C)(=O)=O)c2)c1,cytotoxicity at 70.5 h,-18%
Cc1ccc(N2C[C@H]3OCC[C@H]3[C@H](C(=O)NC3CCC3)C2)nn1,cytotoxicity at 70.5 h,-13%
Cc1cnc(-c2nc(O)c3c(n2)CN(C(=O)C2CCOC2)CC3)cn1 (configuration not stated),cytotoxicity at 70.5 h,-1.76%
Cc1nn(C)c2ncc(C(=O)N3CCNC(=O)C3)cc12,cytotoxicity at 70.5 h,-3.66%
CCc1nc(C2CCCN2C(=O)Cc2cccs2)no1 (configuration not stated),cytotoxicity at 70.5 h,-8.42%
Cc1cnn(C2CN(c3nc(-c4ccncc4)nc4c3CCC4)C2)c1,cytotoxicity at 70.5 h,-6.05%
Cc1noc([C@H]2C[C@H]3OCC[C@H]3N(Cc3ccc4c(c3)OCO4)C2)n1,cytotoxicity at 70.5 h,-11.8%
Cc1nc(NCc2ccc(F)cc2)cc(C2CCCN2)n1 (configuration not stated),cytotoxicity at 70.5 h,-2.67%
CCn1ncc(CN2CCc3c(nc(-c4cccnc4)[nH]c3=O)C2)c1C,cytotoxicity at 70.5 h,-18.3%
COc1cc(Cl)c(C)cc1NC(=O)CCNc1ccc(C#N)cn1,cytotoxicity at 70.5 h,9.88%
CCC(CC)C(=O)N1CCC2(C1)CN(c1ccccc1)C(=O)CN2C (configuration not stated),cytotoxicity at 70.5 h,-20.2%
Cc1nc2c(c(NCc3ccccc3)n1)CCN(C(=O)C1CCC1)CC2,cytotoxicity at 70.5 h,-6.11%
CC(Oc1ccccc1C#N)C(=O)NC1CC1 (configuration not stated),cytotoxicity at 70.5 h,-8.65%
CC(=O)Nc1ccc(CNc2cccc(CS(C)(=O)=O)c2)cc1,cytotoxicity at 70.5 h,-3.91%
Cc1nc2ccc(C(=O)N3CCC(COc4ccccn4)CC3)cc2[nH]1,cytotoxicity at 70.5 h,44.6%
CC(=O)N1CCC2(CCCN(C(=O)c3ccccc3)C2)C1 (configuration not stated),cytotoxicity at 70.5 h,6.68%
CC(C)Cc1noc(CN(C)c2ncccn2)n1,cytotoxicity at 70.5 h,-3.77%
COc1cccc([C@@H]2CCN(Cc3c[nH]c(C)n3)C[C@H]2O)c1,cytotoxicity at 70.5 h,17.7%
Cc1nccc(N2CCN(C3CCOCC3)CC(C(=O)N(C)C)C2)n1 (configuration not stated),cytotoxicity at 70.5 h,-13.5%
OC(CN1CCOCC1)c1ccc(OC(F)(F)F)cc1 (configuration not stated),cytotoxicity at 70.5 h,-9.34%
COc1ccccc1OCCN1CCCCC1Cn1cncn1 (configuration not stated),cytotoxicity at 70.5 h,23.7%
CCc1cc(NC(CCO)c2ccc(OC)cc2)n2nccc2n1 (configuration not stated),cytotoxicity at 70.5 h,-0.73%
Cc1ncsc1C(=O)NCCSCCCO,cytotoxicity at 70.5 h,9.95%
O=C(Nc1ccc(N2CCCC2)nc1)N1CCc2sccc2C1,cytotoxicity at 70.5 h,15.9%
Cc1noc(CCCC(=O)Nc2ncccc2Br)n1,cytotoxicity at 70.5 h,-7.59%
CC1(C)CN(C(=O)NCCc2ccn(-c3ccccc3)n2)CCO1,cytotoxicity at 70.5 h,-12.4%
CCC1=N[C@@]2(CC[C@@H]3CN(C(=O)NCC(C)C)C[C@@H]32)C(=O)N1CCOC,cytotoxicity at 70.5 h,-2.9%
CC(C)C(C)NC(=O)c1cccn1Cc1cccnc1 (configuration not stated),cytotoxicity at 70.5 h,-0.474%
COC(=O)[C@H](C)NC(=O)c1cc(-c2cccc(Cl)c2)no1,cytotoxicity at 70.5 h,2%
Cc1ccccc1C(NC(=O)NCC1(CO)CC1)C1CC1 (configuration not stated),cytotoxicity at 70.5 h,-1.18%
Cc1cc(S(=O)(=O)N(CC(N)=O)CC(C)C)ccc1Br,cytotoxicity at 70.5 h,11.4%
CS(=O)(=O)NC[C@]12COC[C@H]1CN(C(=O)c1ccoc1)C2,cytotoxicity at 70.5 h,-3.34%
CC(C)CCc1n[nH]c(C(=O)O)c1Br,cytotoxicity at 70.5 h,-7.1%
O=C(O)[C@]12CCCN(Cc3ccsc3)C[C@H]1CN(c1ccccn1)C2,cytotoxicity at 70.5 h,13.5%
